Laboratory results: patent US9707202B2, “Certain chemical entities, compositions, and methods” (NEUPHARMA, INC., priority 2011, dated 2017)
≈ marks a conversion by molar mass, not a printed value.

Tests used:
A549 cells = experiment: Inhibition of cell growth in tumor cells (MTT assay); assay type: cell-based; conditions: Homo sapiens, 72 h compound exposure
Experimental: Inhibition of cell growth by compounds was measured using MTT assay (Mosmann, T., Journal of Immunological Methods, 1983, 65, 55-63). Tumor cell lines were purchased from ATCC (American Type Culture Collection, Manassas, Va.). All cell lines were maintained in RPMI 1640 (Hyclone) supplemented with 10% fetal bovine serum (FBS, Hyclone), glutamine (2 mM, Hyclone), and antibiotics (penicillin 100 U/mL and streptomycin 50 µg/mL) at 37° C. in a humidified atmosphere of 5% CO2 in air. Taxol (positive control, Sigma) and compounds were dissolved in DMSO (Sigma), and the final concentration of DMSO in the medium was 1%. Tumor cells were plated in 96-well plates at densities from 4000 cells/well of a 96-well plate and allowed to adhere/grow for 24 h. They were then treated with various concentrations of drug for 72 h. 3-(4,5-Dimethylthiazol-2-yl)-2,5-diphenyltetrazolium bromide (MTT, Sigma) was used to determine the number of viable cells at the time of compound addition and the number of cells remaining after 72 h compound exposure. The number of cells remaining after 72 h was compared to the number of viable cells at the time of compound addition by measuring the absorbance at 570 nm, allowing for the calculation of growth inhibition.
All concentrations of compounds were tested in triplicate and controls were averaged over 4 wells. IC50 was calculated by plotting the concentration of compound vs the percentage of inhibition in treated wells using GraphPad Prism 5.

[1] = Equilibrium solubility in aqueous buffer; assay type: physicochemical; conditions: thermodynamic from solid, NaOAc/AcOH buffer (100 mM, pH 5.0), shaken at rt for 24 h, HPLC UV
Experimental: The equilibrium solubility of compounds was measured in aqueous buffer. Excess amount of solid compound was added into buffer solution and the sample was briefly sonicated and then shaken at rt for 24 h. The sample was filtered and the concentration was analyzed by HPLC UV. A standard solution at 0.2 mg/mL was prepared in methanol or acetonitrile for each compound and used as an external standard for quantification.

COc1cc(/C=C/C(=O)CC(=O)/C=C/c2ccc(OC(=O)N3CCCCC3)c(OC)c2)ccc1OCCO [4-((1E,6E)-7-(4-(2-hydroxyethoxy)-3-methoxyphenyl)-3,5-dioxohepta-1,6-dien-1-yl)-2-methoxyphenyl piperidine-1-carboxylate]
IC50 (A549 cells): 10.9 µM

COc1cc(/C=C/C(=O)CC(=O)/C=C/c2ccc(OC(=O)N3CCNCC3)c(OC)c2)ccc1O [4-((1E,6E)-7-(4-hydroxy-3-methoxyphenyl)-3,5-dioxohepta-1,6-dien-1-yl)-2-methoxyphenyl piperazine-1-carboxylate]
IC50 (A549 cells): 9.2 µM | solubility at 24 h [1]: 1390 µg/mL (≈ 2890 µM)

COc1ccc(/C=C/C(=O)CC(=O)/C=C/c2ccc(OC(=O)N3CCOCC3)c(OC)c2)cc1OC [4-((1E,6E)-7-(3,4-dimethoxyphenyl)-3,5-dioxohepta-1,6-dien-1-yl)-2-methoxyphenyl morpholine-4-carboxylate]
IC50 (A549 cells): 4.6 µM

COc1cc(/C=C/C(=O)CC(=O)/C=C/c2ccc(OC(=O)N3CCOCC3)c(OC)c2)ccc1O [4-((1E,6E)-7-(4-hydroxy-3-methoxyphenyl)-3,5-dioxohepta-1,6-dien-1-yl)-2-methoxyphenyl morpholine-4-carboxylate]
IC50 (A549 cells): 7.2 µM

COc1cc(/C=C/C(=O)CC(=O)/C=C/c2ccc(O)c(OC)c2)ccc1O [Curcumin, reference compound]
IC50 (A549 cells): > 30 µM | solubility at 24 h ([1]; aqueous buffer (NaOAc/AcOH)): < 1 µg/mL

COc1cc(/C=C/C(=O)CC(=O)/C=C/c2ccc(OC(=O)N(C)C)c(OC)c2)ccc1O [4-((1E,6E)-7-(4-hydroxy-3-methoxyphenyl)-3,5-dioxohepta-1,6-dien-1-yl)-2-methoxyphenyl dimethylcarbamate]
IC50 (A549 cells): 2.3 µM

COc1cc(/C=C/C(=O)CC(=O)/C=C/c2ccc(OC(=O)N(C)C)c(OC)c2)ccc1OCCO [4-((1E,6E)-7-(4-(2-hydroxyethoxy)-3-methoxyphenyl)-3,5-dioxohepta-1,6-dien-1-yl)-2-methoxyphenyl dimethylcarbamate]
IC50 (A549 cells): 9.1 µM

COc1cc(/C=C/C(=O)CC(=O)/C=C/c2ccc(OC(=O)N3CCCCC3)c(OC)c2)ccc1O [4-((1E,6E)-7-(4-hydroxy-3-methoxyphenyl)-3,5-dioxohepta-1,6-dien-1-yl)-2-methoxyphenyl piperidine-1-carboxylate]
IC50 (A549 cells): 8 µM

COc1ccc(/C=C/C(=O)CC(=O)/C=C/c2ccc(OC(=O)N3CCN(C)CC3)c(OC)c2)cc1OC [4-((1E,6E)-7-(3,4-dimethoxyphenyl)-3,5-dioxohepta-1,6-dien-1-yl)-2-methoxyphenyl 4-methylpiperazine-1-carboxylate]
IC50 (A549 cells): 4.3 µM | solubility at 24 h [1]: 320 µg/mL (≈ 629 µM)

COc1cc(/C=C/C(=O)CC(=O)/C=C/c2ccc(OC(=O)N3CCN(C)CC3)c(OC)c2)ccc1O [4-((1E,6E)-7-(4-hydroxy-3-methoxyphenyl)-3,5-dioxohepta-1,6-dien-1-yl)-2-methoxyphenyl 4-methylpiperazine-1-carboxylate]
IC50 (A549 cells): 3.8 µM | solubility at 24 h [1]: 18 µg/mL (≈ 36.4 µM)

COc1ccc(/C=C/C(=O)CC(=O)/C=C/c2ccc(OC(=O)N(C)C)c(OC)c2)cc1OC [4-((1E,6E)-7-(3,4-dimethoxyphenyl)-3,5-dioxohepta-1,6-dien-1-yl)-2-methoxyphenyl dimethylcarbamate]
IC50 (A549 cells): 10.6 µM
